Biological target: T1, estrogen receptor (Homo sapiens, UniProt P03372)
T1 construct: endogenous in cells; host or cells: ECC-1 cells
T1 sequence (P03372 1-595): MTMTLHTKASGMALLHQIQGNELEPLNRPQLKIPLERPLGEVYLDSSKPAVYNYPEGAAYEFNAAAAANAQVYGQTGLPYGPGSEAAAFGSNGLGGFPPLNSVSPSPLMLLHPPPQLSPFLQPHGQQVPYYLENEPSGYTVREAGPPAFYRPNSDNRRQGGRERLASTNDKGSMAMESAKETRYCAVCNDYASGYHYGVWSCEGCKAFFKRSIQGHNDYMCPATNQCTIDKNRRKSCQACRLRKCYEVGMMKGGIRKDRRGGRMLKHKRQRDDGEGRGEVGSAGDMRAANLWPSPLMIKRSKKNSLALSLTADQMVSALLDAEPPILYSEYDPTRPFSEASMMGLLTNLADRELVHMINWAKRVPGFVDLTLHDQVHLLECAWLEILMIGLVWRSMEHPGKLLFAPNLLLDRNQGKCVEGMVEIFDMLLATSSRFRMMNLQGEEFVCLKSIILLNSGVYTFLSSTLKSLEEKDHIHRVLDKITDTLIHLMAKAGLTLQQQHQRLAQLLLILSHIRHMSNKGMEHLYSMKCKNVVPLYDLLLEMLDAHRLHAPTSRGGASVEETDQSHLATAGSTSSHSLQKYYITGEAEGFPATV
Assay: Alkaline phosphatase (AP) assay in ECC-1 cells, agonist mode (no E2) and antagonist mode (500 pM E2)
Assay type: cell-based
Conditions: 3 days, AP activity normalized to 500 pM E2 alone, agonist mode without E2, antagonist mode with 500 pM E2
Experimental: ECC-1 cells were trypsinized and resuspended in hormone-depleted media and plated at a density of 15 k cells per well into a 96-well plate for at least 4 hours. Cells were treated with test compounds in the absence of E2 (for agonist mode) or in the presence of 500 pM E2 (for antagonist mode) for 3 days and plates were subsequently frozen at −80° C. Thawed plates were incubated with a chromogenic substrate of AP, p-nitrophenyl phosphate (Thermo Fisher Scientific), for 40 minutes at 42° C., and absorbances were read at 405 nm. AP activity was normalized to the activity of 500 pM E2 alone.
The compound numbers correspond to the compound numbers of Table 1 and 2. Compounds having an activity designated as “+” provided estrogen receptor agonism having (i) at least 80% increase in the E2-normalized signal in the AP assay (agonist mode) and (ii) no more than 80% reduction in the E2-normalized signal in the AP assay (antagonist mode). Compounds having an activity designated as “++” provided estrogen receptor antagonism having (i) between 10% and 80% increase in the E2-normalized signal in the AP assay (agonist mode) and (ii) between 10% and 80% reduction in the E2-normalized signal in the AP assay (antagonist mode).

Structure (SMILES) | Activity (estrogen receptor modulation, agonism and antagonism)
CCCN1CC(Cc2ccc([C@@H]3c4[nH]c5ccccc5c4C[C@@H](C)N3CC(C)(C)F)s2)C1 [Example I-1, 3-({5-[(1S,3R)-2-(2-fluoro-2-methylpropyl)-3-methyl-1H,2H,3H,4H,9H-pyrido[3,4-b]indol-1-yl]thiophen-2-yl}methyl)-1-propylazetidine] | ++ (estrogen receptor antagonism having (i) between 10% and 80% increase in the E2-normalized signal in the AP assay (agonist mode) and (ii) between 10% and 80% reduction in the E2-normalized signal in the AP assay (antagonist mode))
C[C@@H]1Cc2c([nH]c3ccccc23)[C@@H](c2ccc(CC3CN(CCCF)C3)s2)N1CC(C)(C)F [Example I-2, 3-({5-[(1S,3R)-2-(2-fluoro-2-methylpropyl)-3-methyl-1H,2H,3H,4H,9H-pyrido[3,4-b]indol-1-yl]thiophen-2-yl}methyl)-1-(3-fluoropropyl)azetidine] | ++ (estrogen receptor antagonism having (i) between 10% and 80% increase in the E2-normalized signal in the AP assay (agonist mode) and (ii) between 10% and 80% reduction in the E2-normalized signal in the AP assay (antagonist mode))
CCCN1CC(Cc2cnc([C@@H]3c4[nH]c5ccccc5c4C[C@@H](C)N3CC(C)(C)F)s2)C1 [Example I-3, 2-[(1S,3R)-2-(2-fluoro-2-methylpropyl)-3-methyl-1H,2H,3H,4H,9H-pyrido[3,4-b]indol-1-yl]-5-[(1-propylazetidin-3-yl)methyl]-1,3-thiazole] | + (estrogen receptor agonism having (i) at least 80% increase in the E2-normalized signal in the AP assay (agonist mode) and (ii) no more than 80% reduction in the E2-normalized signal in the AP assay (antagonist mode))
C[C@@H]1Cc2c([nH]c3ccccc23)[C@@H](c2ncc(CC3CN(CCCF)C3)s2)N1CC(C)(C)F [Example I-4, 2-[(1S,3R)-2-(2-fluoro-2-methylpropyl)-3-methyl-1H,2H,3H,4H,9H-pyrido[3,4-b]indol-1-yl]-5-{[1-(3-fluoropropyl)azetidin-3-yl]methyl}-1,3-thiazole] | + (estrogen receptor agonism having (i) at least 80% increase in the E2-normalized signal in the AP assay (agonist mode) and (ii) no more than 80% reduction in the E2-normalized signal in the AP assay (antagonist mode))
Cc1cc(CC2CN(CCCF)C2)sc1[C@@H]1c2[nH]c3ccccc3c2C[C@@H](C)N1CC(C)(C)F [Example I-6, 3-({5-[(1S,3R)-2-(2-fluoro-2-methylpropyl)-3-methyl-1H,2H,3H,4H,9H-pyrido[3,4-b]indol-1-yl]-4-methylthiophen-2-yl}methyl)-1-(3-fluoropropyl)azetidine] | ++ (estrogen receptor antagonism having (i) between 10% and 80% increase in the E2-normalized signal in the AP assay (agonist mode) and (ii) between 10% and 80% reduction in the E2-normalized signal in the AP assay (antagonist mode))
CCCN1CC(Cc2ncc([C@@H]3c4[nH]c5ccccc5c4C[C@@H](C)N3CC(C)(C)F)s2)C1 [Example I-7, 5-((1S,3R)-2-(2-fluoro-2-methylpropyl)-3-methyl-2,3,4,9-tetrahydro-1H-pyrido[3,4-b]indol-1-yl)-2-((1-propylazetidin-3-yl)methyl)thiazole] | ++ (estrogen receptor antagonism having (i) between 10% and 80% increase in the E2-normalized signal in the AP assay (agonist mode) and (ii) between 10% and 80% reduction in the E2-normalized signal in the AP assay (antagonist mode))
CCCN1CC(Cc2sc([C@@H]3c4[nH]c5ccccc5c4C[C@@H](C)N3CC(C)(C)F)cc2C)C1 [Example I-8, (1S,3R)-2-(2-fluoro-2-methylpropyl)-3-methyl-1-(4-methyl-5-((1-propylazetidin-3-yl)methyl)thiophen-2-yl)-2,3,4,9-tetrahydro-1H-pyrido[3,4-b]indole] | ++ (estrogen receptor antagonism having (i) between 10% and 80% increase in the E2-normalized signal in the AP assay (agonist mode) and (ii) between 10% and 80% reduction in the E2-normalized signal in the AP assay (antagonist mode))
Cc1cc([C@@H]2c3[nH]c4ccccc4c3C[C@@H](C)N2CC(C)(C)F)sc1CC1CN(CCCF)C1 [Example I-9, (1S,3R)-2-(2-fluoro-2-methylpropyl)-1-(5-((1-(3-fluoropropyl)azetidin-3-yl)methyl)-4-methylthiophen-2-yl)-3-methyl-2,3,4,9-tetrahydro-1H-pyrido[3,4-b]indole] | ++ (estrogen receptor antagonism having (i) between 10% and 80% increase in the E2-normalized signal in the AP assay (agonist mode) and (ii) between 10% and 80% reduction in the E2-normalized signal in the AP assay (antagonist mode))
CCCN1CC(Cc2sc([C@@H]3c4[nH]c5ccccc5c4C[C@@H](C)N3CC(C)(C)F)cc2F)C1 [Example I-10, (1S,3R)-2-(2-fluoro-2-methylpropyl)-1-(4-fluoro-5-((1-propylazetidin-3-yl)methyl)thiophen-2-yl)-3-methyl-2,3,4,9-tetrahydro-1H-pyrido[3,4-b]indole] | ++ (estrogen receptor antagonism having (i) between 10% and 80% increase in the E2-normalized signal in the AP assay (agonist mode) and (ii) between 10% and 80% reduction in the E2-normalized signal in the AP assay (antagonist mode))
CCCN1CC(Cc2cc(F)c([C@@H]3c4[nH]c5ccccc5c4C[C@@H](C)N3CC(C)(C)F)s2)C1 [Example I-11, 3-({4-fluoro-5-[(1S,3R)-2-(2-fluoro-2-methylpropyl)-3-methyl-1H,2H,3H,4H,9H-pyrido[3,4-b]indol-1-yl]thiophen-2-yl}methyl)-1-propylazetidine] | ++ (estrogen receptor antagonism having (i) between 10% and 80% increase in the E2-normalized signal in the AP assay (agonist mode) and (ii) between 10% and 80% reduction in the E2-normalized signal in the AP assay (antagonist mode))
C[C@@H]1Cc2c([nH]c3ccccc23)[C@@H](c2sc(CC3CN(CCCF)C3)cc2F)N1CC(C)(C)F [Example I-12, 3-({4-fluoro-5-[(1S,3R)-2-(2-fluoro-2-methylpropyl)-3-methyl-1H,2H,3H,4H,9H-pyrido[3,4-b]indol-1-yl]thiophen-2-yl}methyl)-1-(3-fluoropropyl)azetidine] | ++ (estrogen receptor antagonism having (i) between 10% and 80% increase in the E2-normalized signal in the AP assay (agonist mode) and (ii) between 10% and 80% reduction in the E2-normalized signal in the AP assay (antagonist mode))
C[C@@H]1Cc2c([nH]c3ccccc23)[C@@H](c2cc(F)c(CC3CN(CCCF)C3)s2)N1CC(C)(C)F [Example I-13, (1S,3R)-2-(2-fluoro-2-methylpropyl)-1-(4-fluoro-5-((1-(3-fluoropropyl)azetidin-3-yl)methyl)thiophen-2-yl)-3-methyl-2,3,4,9-tetrahydro-1H-pyrido[3,4-b]indole] | ++ (estrogen receptor antagonism having (i) between 10% and 80% increase in the E2-normalized signal in the AP assay (agonist mode) and (ii) between 10% and 80% reduction in the E2-normalized signal in the AP assay (antagonist mode))
